The supplement of paper PMC11061612

Assays:
Assay in all cases: Bliss excess, mean over the matrix (fraction); higher = more synergy
[1] = system: COR-L95 (Small Cell Lung Carcinoma)
Outline: (§1)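 Cell lines in DMEM/F12 or RPMI with 10% FBS were plated in 1536-well plates, held 24 hours at 37°C, 5% CO2, then given two-drug dose matrices for 72 hours (DMSO typically 0.2%). Viability was read by CellTiter-Glo 2.0 luminescence and scaled as inhibition from 0 (vehicle wells) to 1 (blank wells). Combination Emax is the second-highest inhibition in the matrix; Bliss excess is observed combination effect minus expected EA + EB − EA·EB, EA and EB being single-agent effects.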

[2] = system: SW1783 (Low Grade Glioma)
Outline: as §1

[3] = system: LS-513 (Colorectal Carcinoma)
Outline: as §1

[4] = system: U-266 (Plasma Cell Myeloma)
Outline: as §1

[5] = system: HT-29 (Colorectal Carcinoma)
Outline: as §1

[6] = system: SN12C (Kidney Carcinoma)
Outline: as §1

[7] = system: NCI-H2595 (Mesothelioma)
Outline: as §1

[8] = system: KARPAS-1106P (B-Cell Non-Hodgkin's Lymphoma)
Outline: as §1

[9] = system: SW1088 (Low Grade Glioma)
Outline: as §1

[10] = system: MDA-MB-157 (Breast Carcinoma)
Outline: as §1

[11] = system: IHH-4 (Thyroid Gland Carcinoma)
Outline: as §1

[12] = system: MFH-ino (Other Solid Carcinomas)
Outline: as §1

[13] = system: DOV13 (Ovarian Carcinoma)
Outline: as §1

[14] = system: NCI-H211 (Small Cell Lung Carcinoma)
Outline: as §1

SMILES	Bliss excess [1]	Bliss excess [2]	Bliss excess [3]	Bliss excess [4]	Bliss excess [5]	Bliss excess [6]	Bliss excess [7]	Bliss excess [8]	Bliss excess [9]	Bliss excess [10]	Bliss excess [11]	Bliss excess [12]	Bliss excess [13]	Bliss excess [14]
C[C@@H](Nc1cc(F)cc(F)c1)c1cc(C(=O)N(C)C)cc2c(=O)cc(N3CCOCC3)oc12 [AZD8186] + CC(=O)c1c(C)c2cnc(Nc3ccc(N4CCNCC4)cn3)nc2n(C2CCCC2)c1=O [Palbociclib] (first compound max 10 µM, 7x7, partner max 10 µM)	-0.0215	0.0594	0.0084	-0.0285	0.0614	0.0245	-0.0917	-0.04	0.0658	0.0093	0.125	0.0173	-0.224	0.2
O=C(c1cc(Cc2n[nH]c(=O)c3ccccc23)ccc1F)N1CCN(C(=O)C2CC2)CC1 [Olaparib] + Cc1c2c(nn1C)CSCc1cc(n(C)n1)CSc1cc(c3ccccc3c1)OCCCc1c(C(=O)O)n(C)c3c-2c(Cl)ccc13 [AZD5991] (first compound max 10 µM, 7x7, partner max 1 µM)	-0.0514	-0.0388	-0.0082	-0.0244	-0.0333	-0.053	-0.0396	0.0403	-0.0383	-0.0291	-0.0093	-0.069	-0.0158	0.024
C=CCn1c(=O)c2cnc(Nc3ccc(N4CCN(C)CC4)cc3)nc2n1-c1cccc(C(C)(C)O)n1 [AZD1775] + Nc1ccn([C@@H]2O[C@H](CO)[C@@H](O)C2(F)F)c(=O)n1 [Gemcitabine] (first compound max 1 µM, partner max 0.3 µM)	-0.0611	0.0121	-0.04	-0.0121	0.0422	0.0719	-0.0765	0.0085	-0.0468	0.106	0.0306	-0.0087	0.016	0.0129
C[C@@H]1COCCN1c1cc(C2([S@](C)(=N)=O)CC2)nc(-c2ccnc3[nH]ccc23)n1 [AZD6738] + Nc1ccn([C@@H]2O[C@H](CO)[C@@H](O)C2(F)F)c(=O)n1 [Gemcitabine] (first compound max 10 µM, 7x7, partner max 0.3 µM)	-0.0359	-0.0109	-0.0336	0.057	0.0492	0.0577	0.0326	0.0614	-0.0399	0.0295	0.0816	-0.0585	0.0205	0.0304
Cc1cc2ncnn2cc1Nc1ncc2c(n1)n(C1CCOCC1)c(=O)n2C [AZD7648] + COc1cc([C@@H]2c3cc4c(cc3[C@@H](O[C@@H]3O[C@@H]5CO[C@@H](C)O[C@H]5[C@H](O)[C@H]3O)[C@H]3COC(=O)[C@H]23)OCO4)cc(OC)c1O [Etoposide] (first compound max 10 µM, 7x7, partner max 10 µM)	0.0315	0.0614	0.111	-0.0446	0.0162	0.0424	0.0252	0.0551	0.032	0.0451	0.185	0.0513	0.0276	0.0313
CS(=O)(=O)CCNCc1ccc(-c2ccc3ncnc(Nc4ccc(OCc5cccc(F)c5)c(Cl)c4)c3c2)o1 [Lapatinib] + Cn1cnc2c(F)c(Nc3ccc(Br)cc3Cl)c(C(=O)NOCCO)cc21 [Selumetinib] (first compound max 10 µM, 7x7, partner max 10 µM)	-0.0382	-0.0252	-0.054	0.0347	0.0362	-0.0375	-0.0548	0.0436	-0.0524	-0.0598	-0.0136	-0.0468	-0.0166	0.0084
Cc1nc(-c2cn3c(n2)-c2ccc(-c4cnn(C(C)(C)C(N)=O)c4)cc2OCC3)n(C(C)C)n1 [Taselisib] + O=C(Nc1ccc2[nH]nc(-c3ccncc3)c2c1)[C@@H]1CCN(CC(=O)N2CCN(c3ccc(-c4ncccn4)cc3)CC2)C1 [SCH772984] (first compound max 10 µM, 7x7, partner max 5 µM)	-0.0479	-0.0071	-0.0377	0.0774	0.111	0.0003	-0.0324	0.0391	-0.0867	0.0631	0.0056	-0.0018	0.0568	0.126
C[C@@H](Oc1cc(-c2cnn(C3CCNCC3)c2)cnc1N)c1c(Cl)ccc(F)c1Cl [Crizotinib] + Cn1cnc2c(F)c(Nc3ccc(Br)cc3Cl)c(C(=O)NOCCO)cc21 [Selumetinib] (first compound max 10 µM, 7x7, partner max 10 µM)	-0.0955	-0.0486	-0.0167	-0.021	-0.018	-0.0062	-0.064	0.0052	-0.0256	-0.0125	-0.0246	-0.026	-0.0732	-0.0327
